Six compounds from patent publication US8999940B2 (Ipsen Pharma S.A.S., priority 2008, dated 2015) can be followed below.

Data set [1] in a line: Human plasma half-life assay. It is filed as in vitro ADME. To be noted: 37° C., LC-MS, read-out: Human Plasma T½ (converted).
The target in data set [2] is T1, human recombinant GIP receptor (Homo sapiens, UniProt P48546).
T1 construct: expressed in transfected cells; host or cells: CHO-K1 clonal cells (membrane preparation)
T1 sequence (P48546 22-466): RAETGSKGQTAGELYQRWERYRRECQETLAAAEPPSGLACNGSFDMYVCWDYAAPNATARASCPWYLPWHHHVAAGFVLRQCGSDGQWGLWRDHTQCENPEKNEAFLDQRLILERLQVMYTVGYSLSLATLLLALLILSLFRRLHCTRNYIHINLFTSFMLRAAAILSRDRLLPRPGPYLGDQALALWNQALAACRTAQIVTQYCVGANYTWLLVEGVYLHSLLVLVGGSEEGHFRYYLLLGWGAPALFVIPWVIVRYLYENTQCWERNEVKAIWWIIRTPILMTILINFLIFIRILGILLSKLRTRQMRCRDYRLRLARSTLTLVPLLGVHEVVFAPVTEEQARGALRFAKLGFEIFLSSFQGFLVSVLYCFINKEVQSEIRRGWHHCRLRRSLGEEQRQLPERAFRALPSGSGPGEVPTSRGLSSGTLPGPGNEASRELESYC
Description: In vitro hGIP receptor binding assay. The method, then: A. In Vitro hGIP Receptor Binding Assay […] The incubations were terminated by rapid filtration through GF/C filters (pre-soaked in 0.5% polyethylenimine) using a Brandel filtration manifold. Each tube and filter were then washed three times with 5-ml aliquots of ice-cold buffer.

Data set [3] is described as follows: Rat plasma half-life assay. It is filed as in vitro ADME. The conditions noted are these: 37° C., LC-MS, read-out: Rat Plasma T½ (converted).

Where no end group is shown, it is not given here. [ ]: non-standard residue; d: D form. The star is where a group is joined. Desaminotyrosyl = O=C(CCc1ccc(O)cc1)*; Hyp = O=C(O)[C@@H]1C[C@@H](O)CN1; Pip = O=C(O)[C@@H]1CCCCN1; Ac6c = NC1(C(=O)O)CCCCC1

The term Ki denotes a measure of affinity in units of concentration, obtained from inhibition or displacement. As to `CC[C@H](C)[C@H](NC(=O)[C@H](CCCCN)NC(=O)[C@H](CC(=O)O)NC(=O)[C@H](CCSC)NC(=O)[C@H](C)NC(=O)[C@@H](NC(=O)C1(NC(=O)[C@H](Cc2ccc(O)cc2)NC(=O)[C@H](CC(=O)O)NC(=O)[C@H](CO)NC(=O)[C@@H](NC(=O)[C@H](Cc2ccccc2)NC(=O)[C@@H](NC(=O)CNC(=O)[C@H](CCC(=O)O)NC(=O)C(C)(C)NC(=O)[C@@H](N)Cc2ccncc2)[C@@H](C)O)[C@@H](C)CC)CCCC1)[C@@H](C)CC)C(=O)N[C@@H](Cc1c[nH]cn1)C(=O)N[C@@H](CCC(N)=O)C(=O)N[C@@H](CCC(N)=O)C(=O)N[C@@H](CC(=O)O)C(=O)N[C@@H](Cc1ccccc1)C(=O)N[C@H](C(=O)N[C@@H](CC(N)=O)C(=O)N[C@@H](Cc1c[nH]c2ccccc12)C(=O)N[C@@H](CC(C)C)C(=O)N[C@@H](CC(C)C)C(=O)N[C@@H](C)C(=O)N[C@@H](CCC(N)=O)C(=O)N[C@@H](CCCCN)C(=O)NCC(=O)N[C@@H](CCCCN)C(=O)N[C@@H](CCCCN)C(=O)N[C@@H](CC(N)=O)C(=O)N[C@@H](CC(=O)O)C(=O)N[C@@H](Cc1c[nH]c2ccccc12)C(=O)N[C@@H](CCCCN)C(=O)N[C@@H](Cc1c[nH]cn1)C(=O)N[C@@H](CC(N)=O)C(=O)N[C@H](C(=O)NC1(C(=O)N[C@@H](CCC(N)=O)C(=O)O)CCCC1)[C@@H](C)CC)C(C)C` [Example 33, (4-Pal^1, Aib^2, A5c^11, 41)hGIP(1-42)-OH], the half-life at 0.1 mg/ml in data set [1] is 32.8 h; in data set [3], 15.5 h. Besides, the inhibition constant (Ki) in data set [2] is 0.00814 µM.

`CC[C@H](C)[C@H](NC(=O)[C@H](CCCCN)NC(=O)[C@H](CC(=O)O)NC(=O)[C@H](CCSC)NC(=O)[C@H](C)NC(=O)[C@@H](NC(=O)C1(NC(=O)[C@H](Cc2ccc(O)cc2)NC(=O)[C@H](CC(=O)O)NC(=O)[C@H](CO)NC(=O)[C@@H](NC(=O)[C@H](Cc2ccccc2)NC(=O)[C@@H](NC(=O)CNC(=O)[C@H](CCC(=O)O)NC(=O)C(C)(C)NC(=O)[C@@H](N)Cc2ccc(O)c([N+](=O)[O-])c2)[C@@H](C)O)[C@@H](C)CC)CCCC1)[C@@H](C)CC)C(=O)N[C@@H](Cc1c[nH]cn1)C(=O)N[C@@H](CCC(N)=O)C(=O)N[C@@H](CCC(N)=O)C(=O)N[C@@H](CC(=O)O)C(=O)N[C@@H](Cc1ccccc1)C(=O)N[C@H](C(=O)N[C@@H](CC(N)=O)C(=O)N[C@@H](Cc1c[nH]c2ccccc12)C(=O)N[C@@H](CC(C)C)C(=O)N[C@@H](CC(C)C)C(=O)N[C@@H](C)C(=O)N[C@@H](CCC(N)=O)C(=O)N[C@@H](CCCCN)C(=O)NCC(=O)N[C@@H](CCCCN)C(=O)N[C@@H](CCCCN)C(=O)N[C@@H](CC(N)=O)C(=O)N[C@@H](CC(=O)O)C(=O)N[C@@H](Cc1c[nH]c2ccccc12)C(=O)N[C@@H](CCCCN)C(=O)N[C@@H](Cc1c[nH]cn1)C(=O)N[C@@H](CC(N)=O)C(=O)N[C@H](C(=O)NC1(C(=O)N[C@@H](CCC(N)=O)C(=O)O)CCCC1)[C@@H](C)CC)C(C)C` [Example 36, (3NO2-Tyr^1, Aib^2, A5c^11, 41)hGIP(1-42)-OH]: the half-life at 0.1 mg/ml is more than 72 h in data set [1] and 11.7 h in data set [3]. In addition, in data set [2], the Ki came to 0.0112 µM.

With `CC[C@H](C)[C@H](NC(=O)[C@H](CCCCN)NC(=O)[C@H](CC(=O)O)NC(=O)[C@H](CCSC)NC(=O)[C@H](C)NC(=O)[C@@H](NC(=O)C1(NC(=O)[C@H](Cc2ccc(O)cc2)NC(=O)[C@H](CC(=O)O)NC(=O)[C@H](CO)NC(=O)[C@@H](NC(=O)[C@H](Cc2ccccc2)NC(=O)[C@@H](NC(=O)CNC(=O)[C@H](CCC(=O)O)NC(=O)C(C)(C)NC(=O)[C@@H](N)Cc2cccc(O)c2)[C@@H](C)O)[C@@H](C)CC)CCCC1)[C@@H](C)CC)C(=O)N[C@@H](Cc1c[nH]cn1)C(=O)N[C@@H](CCC(N)=O)C(=O)N[C@@H](CCC(N)=O)C(=O)N[C@@H](CC(=O)O)C(=O)N[C@@H](Cc1ccccc1)C(=O)N[C@H](C(=O)N[C@@H](CC(N)=O)C(=O)N[C@@H](Cc1c[nH]c2ccccc12)C(=O)N[C@@H](CC(C)C)C(=O)N[C@@H](CC(C)C)C(=O)N[C@@H](C)C(=O)N[C@@H](CCC(N)=O)C(=O)N[C@@H](CCCCN)C(=O)NCC(=O)N[C@@H](CCCCN)C(=O)N[C@@H](CCCCN)C(=O)N[C@@H](CC(N)=O)C(=O)N[C@@H](CC(=O)O)C(=O)N[C@@H](Cc1c[nH]c2ccccc12)C(=O)N[C@@H](CCCCN)C(=O)N[C@@H](Cc1c[nH]cn1)C(=O)N[C@@H](CC(N)=O)C(=O)N[C@H](C(=O)NC1(C(=O)N[C@@H](CCC(N)=O)C(=O)O)CCCC1)[C@@H](C)CC)C(C)C` [Example 26, (30H-Phe^1, Aib^2, A5c^11, 41)hGIP(1-42)-OH], the half-life at 0.1 mg/ml in data set [1] is 26.2 h; in data set [3], 48.8 h. The Ki in data set [2] came to 0.00752 µM.

For `CCCC[C@H](NC(=O)[C@H](C)NC(=O)[C@@H](NC(=O)C1(NC(=O)[C@H](Cc2ccc(O)cc2)NC(=O)[C@H](CC(=O)O)NC(=O)[C@H](CO)NC(=O)[C@@H](NC(=O)[C@H](Cc2ccccc2)NC(=O)[C@@H](NC(=O)CNC(=O)[C@H](CCC(=O)O)NC(=O)C(C)(C)NC(=O)[C@@H](N)Cc2ccc(F)c(F)c2)[C@@H](C)O)[C@@H](C)CC)CCCC1)[C@@H](C)CC)C(=O)N[C@@H](CC(=O)O)C(=O)N[C@@H](CCCCN)C(=O)N[C@H](C(=O)N[C@@H](Cc1c[nH]cn1)C(=O)N[C@@H](CCC(N)=O)C(=O)N[C@@H](CCC(N)=O)C(=O)N[C@@H](CC(=O)O)C(=O)N[C@@H](Cc1ccccc1)C(=O)N[C@H](C(=O)N[C@@H](CC(N)=O)C(=O)N[C@@H](Cc1c[nH]c2ccccc12)C(=O)N[C@@H](CC(C)C)C(=O)N[C@@H](CC(C)C)C(=O)N[C@@H](C)C(=O)N[C@@H](CCC(N)=O)C(=O)N[C@@H](CCCCN)C(=O)NCC(=O)N[C@@H](CCCCN)C(=O)N[C@@H](CCCCN)C(=O)N[C@@H](CC(N)=O)C(=O)N[C@@H](CC(=O)O)C(=O)N[C@@H](Cc1c[nH]c2ccccc12)C(=O)N[C@@H](CCCCN)C(=O)N[C@@H](Cc1c[nH]cn1)C(=O)N[C@@H](CC(N)=O)C(=O)N[C@H](C(=O)N[C@H](C(=O)N[C@@H](CCC(N)=O)C(=O)O)[C@@H](C)O)[C@@H](C)CC)C(C)C)[C@@H](C)CC` [Example 24, (3,4F-Phe^1, Aib^2, A5c^11, Nle^14)hGIP(1-42)-OH], the half-life at 0.1 mg/ml in data set [1] and in data set [3] was more than 74 h each time. Further, the Ki in data set [2] was found to be 0.0157 µM.

Turning to “Desaminotyrosyl-A[Hyp]GTF[Ac6c]SDYSIAMDKIHQQDFVNWLLAQKGKKNDWKHNITQ [Example 7, (4Hppa^1, 4Hyp^3, A6c^7)hGIP(1-42)-OH]”, the half-life at 0.1 mg/ml was 38.5 h in data set [1] and 6.8 h in data set [3]. For the same compound, the inhibition constant (Ki) in data set [2] came out at 0.251 µM.

Regarding “Desaminotyrosyl-A[Pip]GTF[Ac6c]SDYSIAMDKIHQQDFVNWLLAQKGKKNDWKHNITQ [Example 8, (4Hppa^1, hPro^3, A6c^7)hGIP(1-42)-OH]”, the figures for the half-life at 0.1 mg/ml in data set [1] and in data set [3] were more than 53 h and 12.9 h, respectively. The inhibition constant (Ki) in data set [2] was determined as 0.707 µM.
